From article PMC2359919, “Molecular targeting of retinoic acid metabolism in neuroblastoma: the role of the CYP26 inhibitor R116010 in vitro and in vivo” (British Journal of Cancer, 2007)

Assays:
[1] = test system: CYP26; parameters: method as in Njar et al, 2006; details: ref Njar et al, 2006; cited from earlier work
[2] = Pharmacokinetic analysis of RA in an SH-SY5Y xenograft model (retinoid concentrations in plasma, liver, tumour by LC/MS); assay type: in vivo, CD-1 nude mice; details: for Plasma % of total retinoids at all time points: 0.5, 2 and 6 h; for % Total retinoids, tumour, 0.5 h / Tumour concentration, 0.5 h / % Total retinoids, tumour, 2 h / Tumour concentration, 2 h / % Total retinoids, tumour, 6 h / Tumour concentration, 6 h: SH-SY5Y tumour; for % Total retinoids, tumour, 0.5 h / Tumour concentration, 0.5 h / % Total retinoids, tumour, 2 h / Tumour concentration, 2 h / % Total retinoids, tumour, 6 h / Tumour concentration, 6 h / % Total retinoids, liver, 0.5 h / Liver concentration, 0.5 h / % Total retinoids, liver, 2 h / Liver concentration, 2 h / % Total retinoids, liver, 6 h / Liver concentration, 6 h / % Total retinoids, plasma, 0.5 h / Plasma concentration, 0.5 h / % Total retinoids, plasma, 2 h / Plasma concentration, 2 h / % Total retinoids, plasma, 6 h / Plasma concentration, 6 h: label = retinoid measured
Description: (§1) All in vivo experiments were approved by the relevant institutional animal welfare committees, and performed according to national law. Female athymic nude mice (CD-1 nu/nu, Charles River) used for antitumour studies were maintained and handled in isolators, under specific pathogen-free conditions, at 24°C with a 12 h light, 12 h dark cycle. Tumours were generated by implantation of SH-SY5Y cells subcutaneously (s.c.) into one flank of CD-1 nude mice (1 × 10^7 cells per animal).
(§2) Treatments began when the tumours were between 7 and 10 mm in length and breadth. Retinoids and R116010 were initially dissolved in DMSO before 10- or 20-fold dilutions in PBS, respectively. For pharmacokinetic studies, the animals were dosed with ATRA or 13cisRA (each 100 mg kg^−1) orally for 0.5, 2 and 6 h. For metabolism studies, animals were treated with R116010 orally at doses of 1.25 or 2.5 mg kg^−1 either immediately before the retinoid being studied, or up to three times (over 1–2 days) before dosing with the retinoid. At termination of experiments, animals were bled under terminal anaesthesia then killed by cervical dislocation. Plasma was immediately removed from the blood by centrifugation at 1000 g for 5 min and snap-frozen in liquid nitrogen in amber Eppendorfs. Tumour and liver samples were removed and snap-frozen, wrapped in foil, in liquid nitrogen.
(§3) Cell pellets obtained from retinoid incubations were re-suspended in 2 ml cell culture medium and disrupted by passing the samples several times through a syringe and hypodermic needle (25G × 1 inches, 0.5 mm × 25 mm; Terumo, Somerset, NJ, USA). Tumour and liver tissues were re-suspended in PBS and homogenised (T25 homogeniser, IKA Laboratories, Staufen, Germany). Retinoids were extracted as described previously ([Veal et al, 2002]; [Armstrong et al, 2005b]). Samples were reconstituted in 200 μl mobile phase A (n-hexane:dichloromethane:propan-2-ol, 400 : 1 : 0.27) and analysed by normal-phase HPLC as described previously ([Veal et al, 2002]). For LC/MS analysis, samples were reconstituted in 200 μl mobile phase A (50% acetonitrile, 50% (0.2%) acetic acid, v v^−1).
(§4) Resolution of retinoids was performed with a Luna C18(2) column (3 μm, 50 mm × 2 mm) using a Perkin Elmer LC (Beaconsfield, UK) system, consisting of a vacuum degasser, two series 200 pumps, a thermostatically controlled series 200 autosampler and a Waters 2487 UV absorbance detector. Retinoic isomers and metabolites were separated by gradient reversed-phase chromatography. An injection volume of 20 μl with a flow rate of 0.2 ml min^−1 was used with mobile phase A (50% acetonitrile, 50% (0.2%) acetic acid, v v^−1) and mobile phase B (acetonitrile, 0.1% acetic acid, v v^−1). Linear gradients were employed between the specified times as follows: 0, 100% A; 5 min, 100% A; 15 min, 100% B; 20 min, 100% B; 23 min, 100% A; 35 min, 100% A. An Applied Biosystems (Warrington, UK) API-2000 LC/MS/MS triple Q (quadrupole) mass spectrometer with electrospray ionisation source, controlled by Analyst software, was operated in single quadrupole negative mode for the detection of compounds.

[3] = test system: RA metabolism; experiment: Effect of R116010 on retinoid concentrations (plasma, liver, tumour) in an SH-SY5Y xenograft model, LC/MS; assay type: in vivo, CD-1 nude mice; details: ATRA-treated mice (100 mg kg^−1) without or with R116010; 6 h
Description: as §1, §2, §3, §4

[4] = after 13cisRA 100 mg kg^−1 oral

SMILES | % Total retinoids, tumour, 0.5 h [2, 4] [%] | Tumour concentration, 0.5 h [2, 4] [µg/g] | % Total retinoids, tumour, 2 h [2, 4] [%] | Tumour concentration, 2 h [2, 4] [µg/g] | % Total retinoids, tumour, 6 h [2, 4] [%] | Tumour concentration, 6 h [2, 4] [µg/g] | % Total retinoids, liver, 0.5 h [2, 4] [%] | Liver concentration, 0.5 h [2, 4] [µg/g] | % Total retinoids, liver, 2 h [2, 4] [%] | Liver concentration, 2 h [2, 4] [µg/g] | % Total retinoids, liver, 6 h [2, 4] [%] | Liver concentration, 6 h [2, 4] [µg/g] | % Total retinoids, plasma, 0.5 h [2, 4] [%] | Plasma concentration, 0.5 h [2, 4] [µM] | % Total retinoids, plasma, 2 h [2, 4] [%] | Plasma concentration, 2 h [2, 4] [µM] | % Total retinoids, plasma, 6 h [2, 4] [%] | Plasma concentration, 6 h [2, 4] [µM] | % Total retinoids, tumour, 0.5 h ([2]; after ATRA 100 mg kg^−1 oral) [%] | Tumour concentration, 0.5 h ([2]; after ATRA 100 mg kg^−1 oral) [µg/g] | also measured
Clc1cccc(C(c2ccc3[nH]cnc3c2)n2ccnc2)c1 (stereo not drawn) [liarozole] |  |  |  |  |  |  |  |  |  |  |  |  |  |  |  |  |  |  |  |  | Ability to inhibit CYP26 [1]: only moderate ability to inhibit CYP26
CC1=C(/C=C/C(C)=C/C=C/C(C)=C/C(=O)O)C(C)(C)CCC1=O [AT-4-oxoRA, all-trans-4-oxo-RA] | <1 | 0.02 ± 0.0 | 3 | 0.09 ± 0.04 | 16 | 0.09 ± 0.02 | 5 | 0.26 ± 0.10 | 8 | 0.30 ± 0.09 | 12 | 0.67 ± 0.25 | 0 | 0 | <1 | 0.13 ± 0.04 | 0 | 0 | 8 | 0.21 ± 0.09 | Plasma % of total retinoids at all time points ([2]; after 13cisRA 100 mg kg^−1): < 10%; % Total retinoids, tumour, 2 h ([2]; after ATRA 100 mg kg^−1 oral): 2%; Tumour concentration, 2 h ([2]; after ATRA 100 mg kg^−1 oral): 0.24 ± 0.06 µg/g; % Total retinoids, tumour, 6 h ([2]; after ATRA 100 mg kg^−1 oral): 17%; Tumour concentration, 6 h ([2]; after ATRA 100 mg kg^−1 oral): 0.79 ± 0.38 µg/g; % Total retinoids, liver, 0.5 h ([2]; after ATRA 100 mg kg^−1 oral): 11%; Liver concentration, 0.5 h ([2]; after ATRA 100 mg kg^−1 oral): 0.44 ± 0.12 µg/g; % Total retinoids, liver, 2 h ([2]; after ATRA 100 mg kg^−1 oral): 13%; Liver concentration, 2 h ([2]; after ATRA 100 mg kg^−1 oral): 1.07 ± 0.05 µg/g; % Total retinoids, liver, 6 h ([2]; after ATRA 100 mg kg^−1 oral): 45%; Liver concentration, 6 h ([2]; after ATRA 100 mg kg^−1 oral): 2.39 ± 0.72 µg/g; Liver concentration, 6 h ([2]; after ATRA 100 mg kg^−1 oral, listed as AT-4-oxo-RA): 2.39 µg/g; % Total retinoids, plasma, 0.5 h ([2]; after ATRA 100 mg kg^−1 oral): 4%; Plasma concentration, 0.5 h ([2]; after ATRA 100 mg kg^−1 oral): 0.6 ± 0.4 µM; % Total retinoids, plasma, 2 h ([2]; after ATRA 100 mg kg^−1 oral): 6%; Plasma concentration, 2 h ([2]; after ATRA 100 mg kg^−1 oral): 1.7 ± 0.3 µM; % Total retinoids, plasma, 6 h ([2]; after ATRA 100 mg kg^−1 oral): 22%; Plasma concentration, 6 h ([2]; after ATRA 100 mg kg^−1 oral): 4.0 ± 2.4 µM
CC1=C(/C=C/C(C)=C/C=C/C(C)=C\C(=O)O)C(C)(C)CCC1=O [13cis-4-oxoRA, 13-cis-4-oxo-RA] | 3 | 0.06 ± 0.02 | 2 | 0.04 ± 0.0 | 19 | 0.11 ± 0.05 | 18 | 0.89 ± 0.22 | 33 | 1.33 ± 0.08 | 69 | 3.79 ± 0.99 | 2 | 0.27 ± 0.11 | 3 | 0.63 ± 0.10 | 20 | 1.22 ± 0.24 | 0 | 0 | Liver concentration, 6 h ([2]; after 13cisRA 100 mg kg^−1 oral, listed as 13cis-4-oxo-RA): 3.79 µg/g; Plasma % of total retinoids at all time points ([2]; after ATRA 100 mg kg^−1): < 10%; % Total retinoids, tumour, 2 h ([2]; after ATRA 100 mg kg^−1 oral): 0%; Tumour concentration, 2 h ([2]; after ATRA 100 mg kg^−1 oral): 0 µg/g; % Total retinoids, tumour, 6 h ([2]; after ATRA 100 mg kg^−1 oral): 0%; Tumour concentration, 6 h ([2]; after ATRA 100 mg kg^−1 oral): 0 µg/g; % Total retinoids, liver, 0.5 h ([2]; after ATRA 100 mg kg^−1 oral): 1%; Liver concentration, 0.5 h ([2]; after ATRA 100 mg kg^−1 oral): 0.06 ± 0.03 µg/g; % Total retinoids, liver, 2 h ([2]; after ATRA 100 mg kg^−1 oral): 1%; Liver concentration, 2 h ([2]; after ATRA 100 mg kg^−1 oral): 0.09 ± 0.02 µg/g; % Total retinoids, liver, 6 h ([2]; after ATRA 100 mg kg^−1 oral): 4%; Liver concentration, 6 h ([2]; after ATRA 100 mg kg^−1 oral): 0.22 ± 0.09 µg/g; % Total retinoids, plasma, 0.5 h ([2]; after ATRA 100 mg kg^−1 oral): <1%; Plasma concentration, 0.5 h ([2]; after ATRA 100 mg kg^−1 oral): 0.03 ± 0.01 µM; % Total retinoids, plasma, 2 h ([2]; after ATRA 100 mg kg^−1 oral): <1%; Plasma concentration, 2 h ([2]; after ATRA 100 mg kg^−1 oral): 0.02 ± 0.01 µM; % Total retinoids, plasma, 6 h ([2]; after ATRA 100 mg kg^−1 oral): <1%; Plasma concentration, 6 h ([2]; after ATRA 100 mg kg^−1 oral): 0.05 ± 0.03 µM; Plasma 13cis-4-oxo-RA [3]: not detectable
